The values below come from BindingDB's records for doi:10.1016/j.bmcl.2009.09.017 (Pfizer, 2009).

For orientation: IC50 means the point on the concentration scale where inhibition reaches its midpoint.

A short description of this assay: Antagonist activity at P2Y12 receptor in human platelet rich plasma assessed as inhibition of ADP-induced platelet aggregation by light transmission aggregometry.
On to `CCCCCOC(=O)N1CCN(C(=O)[C@H](CCC(=O)O)NC(=O)c2cc(N3CCC(CN(CC)CC)CC3)nc(-c3ccccc3)n2)CC1` [(4S)-4-[(6-{4-[(diethylamino)methyl]piperidin-1-yl}-2-phenylpyrimidin-4-yl)formamido]-5-oxo-5-{4-[(pentyloxy)carbonyl]piperazin-1-yl}pentanoic acid], for which the concentration for half-maximal inhibition (IC50) came out at 0.86 µM.

Take `CCCCOC(=O)N1CCN(C(=O)[C@H](CCC(=O)O)NC(=O)c2cc(OC(CC)C(=O)N(CC)CC)nc(-c3ccccc3)n2)CC1` (stereo partly drawn) [(4S)-5-(4-(butoxycarbonyl)piperazin-1-yl)-4-(6-(1-(diethylamino)-1-oxobutan-2-yloxy)-2-phenylpyrimidine-4-carboxamido)-5-oxopentanoic acid]: the half-maximal inhibitory concentration (IC50) came to 49 µM.

As for `CCCCOC(=O)N1CCN(C(=O)[C@H](CCC(=O)O)NC(=O)c2cc(OCC3CCCO3)nc(-c3ccccc3)n2)CC1` (stereo partly drawn) [(4S)-5-(4-(butoxycarbonyl)piperazin-1-yl)-5-oxo-4-(2-phenyl-6-((tetrahydrofuran-2-yl)methoxy)pyrimidine-4-carboxamido)pentanoic acid], the 50% inhibitory concentration (IC50) came out at 4.4 µM.

In the case of `CCCCCOC(=O)N1CCN(C(=O)[C@H](CCC(=O)O)NC(=O)c2cc(NCC3CCNC3)nc(-c3ccccc3)n2)CC1` (stereo partly drawn) [(4S)-5-oxo-5-(4-(pentyloxycarbonyl)piperazin-1-yl)-4-(2-phenyl-6-(pyrrolidin-3-ylmethylamino)pyrimidine-4-carboxamido)pentanoic acid], the half-inhibitory concentration (IC50) was found to be 2.6 µM.

Take `CCCCCOC(=O)N1CCN(C(=O)[C@H](CCC(=O)O)NC(=O)c2nc(NC3CCN(C(C)C)CC3)cc(-c3ccccc3)n2)CC1` [(S)-4-(4-(1-isopropylpiperidin-4-ylamino)-6-phenylpyrimidine-2-carboxamido)-5-oxo-5-(4-(pentyloxycarbonyl)piperazin-1-yl)pentanoic acid]: the IC50 is > 10 µM.

Consider `CCCCCOC(=O)N1CCN(C(=O)[C@H](CCC(=O)O)NC(=O)c2nc(OCCN(CC)CC)cc(-c3ccccc3)n2)CC1` [(S)-4-(4-(2-(diethylamino)ethoxy)-6-phenylpyrimidine-2-carboxamido)-5-oxo-5-(4-(pentyloxycarbonyl)piperazin-1-yl)pentanoic acid], for which the IC50 was > 10 µM.

Regarding `CCCCCOC(=O)N1CCN(C(=O)[C@H](CCC(=O)O)NC(=O)c2nc(OCCOC)cc(-c3ccccc3)n2)CC1` [(S)-4-(4-(2-methoxyethoxy)-6-phenylpyrimidine-2-carboxamido)-5-oxo-5-(4-(pentyloxycarbonyl)piperazin-1-yl)pentanoic acid], the 50% inhibitory concentration (IC50) was > 10 µM.

Consider `CCCCCOC(=O)N1CCN(C(=O)[C@H](CCC(=O)O)NC(=O)c2nc(NCCOC)cc(-c3ccccc3)n2)CC1` [(S)-4-(4-(2-methoxyethylamino)-6-phenylpyrimidine-2-carboxamido)-5-oxo-5-(4-(pentyloxycarbonyl)piperazin-1-yl)pentanoic acid], for which the concentration for half-maximal inhibition (IC50) was > 10 µM.

`CCCCCOC(=O)N1CCN(C(=O)[C@H](CCC(=O)O)NC(=O)c2nc(NCCCN(C)C)cc(-c3ccccc3)n2)CC1` [(S)-4-(4-(3-(dimethylamino)propylamino)-6-phenylpyrimidine-2-carboxamido)-5-oxo-5-(4-(pentyloxycarbonyl)piperazin-1-yl)pentanoic acid]: the half-inhibitory concentration (IC50) was > 10 µM.

Turning to `CCCCCOC(=O)N1CCN(C(=O)[C@H](CCC(=O)O)NC(=O)c2nc(OCCCN3CCOCC3)cc(-c3ccccc3)n2)CC1` [(S)-4-(4-(3-morpholinopropoxy)-6-phenylpyrimidine-2-carboxamido)-5-oxo-5-(4-(pentyloxycarbonyl)piperazin-1-yl)pentanoic acid], the concentration for half-maximal inhibition (IC50) is 7 µM.

In the case of `CCCCCOC(=O)N1CCN(C(=O)[C@H](CCC(=O)O)NC(=O)c2nc(-c3ccccc3)cc(N3CCN(CC(=O)N(C)C)CC3)n2)CC1` [(S)-4-(4-(4-(2-(dimethylamino)-2-oxoethyl)piperazin-1-yl)-6-phenylpyrimidine-2-carboxamido)-5-oxo-5-(4-(pentyloxycarbonyl)piperazin-1-yl)pentanoic acid], the IC50 was 3 µM.

Turning to `CCCCCOC(=O)N1CCN(C(=O)[C@H](CCC(=O)O)NC(=O)c2nc(-c3ccccc3)cc(N3CCC(CCN)CC3)n2)CC1` [(S)-4-(4-(4-(2-aminoethyl)piperidin-1-yl)-6-phenylpyrimidine-2-carboxamido)-5-oxo-5-(4-(pentyloxycarbonyl)piperazin-1-yl)pentanoic acid], the IC50 amounted to 1.4 µM.

Turning to `CCCCCOC(=O)N1CCN(C(=O)[C@H](CCC(=O)O)NC(=O)c2nc(-c3ccccc3)cc(N3CCC(OCCO)CC3)n2)CC1` [(S)-4-(4-(4-(2-hydroxyethoxy)piperidin-1-yl)-6-phenylpyrimidine-2-carboxamido)-5-oxo-5-(4-(pentyloxycarbonyl)piperazin-1-yl)pentanoic acid], the IC50 was > 10 µM.

As to `CCCCCOC(=O)N1CCN(C(=O)[C@H](CCC(=O)O)NC(=O)c2nc(-c3ccccc3)cc(N3CCC(OCCOC)CC3)n2)CC1` [(S)-4-(4-(4-(2-methoxyethoxy)piperidin-1-yl)-6-phenylpyrimidine-2-carboxamido)-5-oxo-5-(4-(pentyloxycarbonyl)piperazin-1-yl)pentanoic acid], the IC50 came out at 5.3 µM.

For `CCCCCOC(=O)N1CCN(C(=O)[C@H](CCC(=O)O)NC(=O)c2nc(-c3ccccc3)cc(N3CCN(CCOC)CC3)n2)CC1` [(S)-4-(4-(4-(2-methoxyethyl)piperazin-1-yl)-6-phenylpyrimidine-2-carboxamido)-5-oxo-5-(4-(pentyloxycarbonyl)piperazin-1-yl)pentanoic acid], the concentration for half-maximal inhibition (IC50) came out at 5.1 µM.

Take `CCCCCOC(=O)N1CCN(C(=O)[C@H](CCC(=O)O)NC(=O)c2nc(-c3ccccc3)cc(N3CCC(CCOC)CC3)n2)CC1` [(S)-4-(4-(4-(2-methoxyethyl)piperidin-1-yl)-6-phenylpyrimidine-2-carboxamido)-5-oxo-5-(4-(pentyloxycarbonyl)piperazin-1-yl)pentanoic acid]: the IC50 is > 10 µM.

As to `CCCCCOC(=O)N1CCN(C(=O)[C@H](CCC(=O)O)NC(=O)c2nc(-c3ccccc3)cc(N3CCC(COCCOC)CC3)n2)CC1` [(S)-4-(4-(4-((2-methoxyethoxy)methyl)piperidin-1-yl)-6-phenylpyrimidine-2-carboxamido)-5-oxo-5-(4-(pentyloxycarbonyl)piperazin-1-yl)pentanoic acid], the IC50 was > 10 µM.

Take `CCCCCOC(=O)N1CCN(C(=O)[C@H](CCC(=O)O)NC(=O)c2nc(-c3ccccc3)cc(N3CCC(CNCC)CC3)n2)CC1` [(S)-4-(4-(4-((ethylamino)methyl)piperidin-1-yl)-6-phenylpyrimidine-2-carboxamido)-5-oxo-5-(4-(pentyloxycarbonyl)piperazin-1-yl)pentanoic acid]: the half-inhibitory concentration (IC50) is 1.2 µM.

`CCCCCOC(=O)N1CCN(C(=O)[C@H](CCC(=O)O)NC(=O)c2nc(-c3ccccc3)cc(N3CCC(CNC)CC3)n2)CC1` [(S)-4-(4-(4-((methylamino)methyl)piperidin-1-yl)-6-phenylpyrimidine-2-carboxamido)-5-oxo-5-(4-(pentyloxycarbonyl)piperazin-1-yl)pentanoic acid]: the IC50 was determined as 1.3 µM.

As to `CCCCCOC(=O)N1CCN(C(=O)[C@H](CCC(=O)O)NC(=O)c2nc(-c3ccccc3)cc(N3CCC(CN)CC3)n2)CC1` [(S)-4-(4-(4-(aminomethyl)piperidin-1-yl)-6-phenylpyrimidine-2-carboxamido)-5-oxo-5-(4-(pentyloxycarbonyl)piperazin-1-yl)pentanoic acid], the IC50 was 0.77 µM.

For `CCCCCOC(=O)N1CCN(C(=O)[C@H](CCC(=O)O)NC(=O)c2nc(-c3ccccc3)cc(N3CCC(C(=O)N(CC)CC)CC3)n2)CC1` [(S)-4-(4-(4-(diethylcarbamoyl)piperidin-1-yl)-6-phenylpyrimidine-2-carboxamido)-5-oxo-5-(4-(pentyloxycarbonyl)piperazin-1-yl)pentanoic acid], the half-maximal inhibitory concentration (IC50) was determined as 1.3 µM.

On to `CCCCCOC(=O)N1CCN(C(=O)[C@H](CCC(=O)O)NC(=O)c2nc(-c3ccccc3)cc(N3CCN(C(=O)N(C)C)CC3)n2)CC1` [(S)-4-(4-(4-(dimethylcarbamoyl)piperazin-1-yl)-6-phenylpyrimidine-2-carboxamido)-5-oxo-5-(4-(pentyloxycarbonyl)piperazin-1-yl)pentanoic acid], for which the half-inhibitory concentration (IC50) was > 10 µM.

Regarding `CCCCCOC(=O)N1CCN(C(=O)[C@H](CCC(=O)O)NC(=O)c2nc(-c3ccccc3)cc(N3CCC(COC)CC3)n2)CC1` [(S)-4-(4-(4-(methoxymethyl)piperidin-1-yl)-6-phenylpyrimidine-2-carboxamido)-5-oxo-5-(4-(pentyloxycarbonyl)piperazin-1-yl)pentanoic acid], the IC50 amounted to 6.8 µM.

On to `CCCCCOC(=O)N1CCN(C(=O)[C@H](CCC(=O)O)NC(=O)c2nc(-c3ccccc3)cc(N3CCN(C(C)=O)CC3)n2)CC1` [(S)-4-(4-(4-acetylpiperazin-1-yl)-6-phenylpyrimidine-2-carboxamido)-5-oxo-5-(4-(pentyloxycarbonyl)piperazin-1-yl)pentanoic acid], for which the IC50 is 6.5 µM.

`CCCCCOC(=O)N1CCN(C(=O)[C@H](CCC(=O)O)NC(=O)c2nc(-c3ccccc3)cc(N3CCC(N)CC3)n2)CC1` [(S)-4-(4-(4-aminopiperidin-1-yl)-6-phenylpyrimidine-2-carboxamido)-5-oxo-5-(4-(pentyloxycarbonyl)piperazin-1-yl)pentanoic acid]: the IC50 stood at 2.7 µM.

Take `CCCCCOC(=O)N1CCN(C(=O)[C@H](CCC(=O)O)NC(=O)c2nc(-c3ccccc3)cc(N3CCN(C(N)=O)CC3)n2)CC1` [(S)-4-(4-(4-carbamoylpiperazin-1-yl)-6-phenylpyrimidine-2-carboxamido)-5-oxo-5-(4-(pentyloxycarbonyl)piperazin-1-yl)pentanoic acid]: the half-inhibitory concentration (IC50) worked out at 3.6 µM.

With `CCCCCOC(=O)N1CCN(C(=O)[C@H](CCC(=O)O)NC(=O)c2nc(-c3ccccc3)cc(N3CCC(C(N)=O)CC3)n2)CC1` [(S)-4-(4-(4-carbamoylpiperidin-1-yl)-6-phenylpyrimidine-2-carboxamido)-5-oxo-5-(4-(pentyloxycarbonyl)piperazin-1-yl)pentanoic acid], the 50% inhibitory concentration (IC50) came out at 2.3 µM.

In the case of `CCCCCOC(=O)N1CCN(C(=O)[C@H](CCC(=O)O)NC(=O)c2nc(-c3ccccc3)cc(N3CCC(OC)CC3)n2)CC1` [(S)-4-(4-(4-methoxypiperidin-1-yl)-6-phenylpyrimidine-2-carboxamido)-5-oxo-5-(4-(pentyloxycarbonyl)piperazin-1-yl)pentanoic acid], the IC50 is > 10 µM.
